This assay relates to P388 leukemia ip, CD2F1 mice, survival T/C. The assay is described as follows: NCI In Vivo Anticancer Drug Screen. Data for tumor model P388 Leukemia (intraperitoneal) in CD2F1 (CDF1) mice. The conditions noted are these: endpoint: median survival time, higher = longer survival. The gist of the method:
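Mice carrying the transplanted tumor received test compound or vehicle. Survival was recorded in each group, and the value is the treated-group measurement divided by that of the vehicle-treated control group.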

Setting [1] is: dose: 60.0 mg/kg/injection, schedule: Q01DX005 (ip), vehicle: saline with Tween-80.
The mark [2] stands for this setting: dose: 50.0 mg/kg/injection, schedule: Q01DX005 (ip), vehicle: Klucel (hydroxypropylcellulose) (HPC).
Where [3] appears, read: dose: 100.0 mg/kg/injection, schedule: Q01DX005 (ip), vehicle: Klucel (hydroxypropylcellulose) (HPC).
The mark [4] stands for this setting: dose: 100.0 mg/kg/injection, schedule: Q04DX003 (ip), vehicle: Klucel (hydroxypropylcellulose) (HPC).
Where [5] appears, read: dose: 200.0 mg/kg/injection, schedule: Q04DX003 (ip), vehicle: Klucel (hydroxypropylcellulose) (HPC).

Values joined by “and” are separate entries in the source; they are usually repeats but may differ in a detail not shown here. Identical values can stand only once. Inconclusive results and toxic doses are left out.

With `COc1cccc(Sc2ccc([N+](=O)[O-])c3no[n+]([O-])c23)c1`, the T/C runs as follows: (dose: 0.93 mg/kg/injection, schedule: Q01DX005 (ip), vehicle: saline with Tween-80) 100 % of control; (dose: 0.93 mg/kg/injection, schedule: Q01DX009 (ip), vehicle: saline with Tween-80) 157 % of control; (dose: 1.56 mg/kg/injection, schedule: Q01DX005 (ip), vehicle: saline with Tween-80) 100 % of control and 97 % of control; (dose: 1.87 mg/kg/injection, schedule: Q01DX005 (ip), vehicle: saline with Tween-80) 99 % of control; (dose: 1.87 mg/kg/injection, schedule: Q01DX009 (ip), vehicle: saline with Tween-80) 163 % of control; (dose: 3.12 mg/kg/injection, schedule: Q01DX005 (ip), vehicle: saline with Tween-80) 100 % of control and 102 % of control. The T/C was 99 % of control (dose: 3.75 mg/kg/injection, schedule: Q01DX005 (ip), vehicle: saline with Tween-80); 99 % of control (dose: 3.75 mg/kg/injection, schedule: Q01DX009 (ip), vehicle: saline with Tween-80); 100 % of control and 106 % of control (dose: 6.25 mg/kg/injection, schedule: Q01DX005 (ip), vehicle: saline with Tween-80); 102 % of control (dose: 7.5 mg/kg/injection, schedule: Q01DX005 (ip), vehicle: saline with Tween-80); 102 % of control and 106 % of control (dose: 12.5 mg/kg/injection, schedule: Q01DX005 (ip), vehicle: saline with Tween-80); 106 % of control (dose: 15.0 mg/kg/injection, schedule: Q01DX005 (ip), vehicle: saline with Tween-80). For the same molecule, the T/C is 184 % of control (dose: 15.0 mg/kg/injection, schedule: Q01DX009 (ip), vehicle: Klucel (hydroxypropylcellulose) (HPC)); 107 % of control (dose: 15.0 mg/kg/injection, schedule: Q01DX009 (ip), vehicle: saline with Tween-80); 108 % of control and 111 % of control (dose: 25.0 mg/kg/injection, schedule: Q01DX005 (ip), vehicle: saline with Tween-80); 109 % of control (dose: 30.0 mg/kg/injection, schedule: Q01DX005 (ip), vehicle: saline with Tween-80); 166 % of control (dose: 30.0 mg/kg/injection, schedule: Q01DX009 (ip), vehicle: Klucel (hydroxypropylcellulose) (HPC)); 110 % of control under setting [1]. Besides, the T/C (dose: 60.0 mg/kg/injection, schedule: Q01DX009 (ip), vehicle: Klucel (hydroxypropylcellulose) (HPC)) was 88 % of control.
As to `CN(C)C1CCC(NC2=CC(=O)C(NC3CCC(N(C)C)CC3)=CC2=O)CC1` (centres undefined), the T/C is, setting by setting: (dose: 1.56 mg/kg/injection, schedule: Q01DX005 (ip), vehicle: distilled water + alcohol) 95 % of control; (dose: 3.12 mg/kg/injection, schedule: Q01DX005 (ip), vehicle: distilled water + alcohol) 99 % of control; (dose: 6.25 mg/kg/injection, schedule: Q01DX005 (ip), vehicle: distilled water + alcohol) 100 % of control and 96 % of control.
On to `CCOC(=O)c1ccccc1-n1nnc(C#N)c1N`, for which the T/C runs as follows: under setting [2], 105 % of control; under setting [3], 115 % of control.
Consider `CNNCc1ccc(C(=O)NC(N)=O)cc1`, for which the T/C (dose: 300.0 mg/kg/injection, schedule: Q01DX009 (ip), vehicle: saline) was 170 % of control.
`COC(=O)C1=C2\c3cc4c(cc3CCN2C(=O)c2ccc(OC)c(OC)c2/C(OC)=C\1)OCO4`: the T/C by setting is: (dose: 50.0 mg/kg/injection, schedule: Q01DX005 (ip), vehicle: saline with Tween-80) 93 % of control; (dose: 100.0 mg/kg/injection, schedule: Q01DX005 (ip), vehicle: saline with Tween-80) 90 % of control; (dose: 200.0 mg/kg/injection, schedule: Q01DX005 (ip), vehicle: saline with Tween-80) 90 % of control.
In the case of `CN1C(=O)/C(=C2\SC(=O)N(CN3CCOCC3)C2=O)c2cc(Br)ccc21`, the T/C is 88 % of control under setting [2]; 89 % of control under setting [3]; 97 % of control (dose: 200.0 mg/kg/injection, schedule: Q01DX005 (ip), vehicle: Klucel (hydroxypropylcellulose) (HPC)).
Take `CCCC[N+]1([O-])CCOCC1`: the T/C by setting is: (dose: 50.0 mg/kg/injection, schedule: Q01DX009 (ip), vehicle: saline) 104 % of control; (dose: 100.0 mg/kg/injection, schedule: Q01DX009 (ip), vehicle: saline) 100 % of control; (dose: 200.0 mg/kg/injection, schedule: Q01DX009 (ip), vehicle: saline) 107 % of control.
With `OCC(O)C(O)C(O)C(O)CO.[Cu+2].[Cu]` (centres undefined), the T/C (dose: 3.12 mg/kg/injection, schedule: Q01DX005 (ip), vehicle: Klucel (hydroxypropylcellulose) (HPC)) was 88 % of control and the T/C (dose: 6.25 mg/kg/injection, schedule: Q01DX005 (ip), vehicle: Klucel (hydroxypropylcellulose) (HPC)) is 92 % of control.
As to `C1=C(/C=C2\CCCc3c(-c4ccccc4)cc(-c4ccccc4)[o+]c32)CCC/C1=C\C1=C2OC(c3ccccc3)=CC(c3ccccc3)=C2CCC1`, the T/C reads like this: under setting [1], 102 % of control; (dose: 120.0 mg/kg/injection, schedule: Q01DX005 (ip), vehicle: saline with Tween-80) 93 % of control; (dose: 240.0 mg/kg/injection, schedule: Q01DX005 (ip), vehicle: saline with Tween-80) 87 % of control.
`N=C(N)S(=O)(=O)c1ccccc1`: the T/C reads like this: (dose: 12.5 mg/kg/injection, schedule: Q04DX003 (ip), vehicle: Klucel (hydroxypropylcellulose) (HPC)) 102 % of control and 106 % of control; (dose: 25.0 mg/kg/injection, schedule: Q04DX003 (ip), vehicle: Klucel (hydroxypropylcellulose) (HPC)) 106 % of control and 108 % of control (2×); (dose: 50.0 mg/kg/injection, schedule: Q04DX003 (ip), vehicle: Klucel (hydroxypropylcellulose) (HPC)) 102 % of control and 107 % of control and 121 % of control; under setting [4], 112 % of control; under setting [5], 118 % of control.
For `CC1CCCC(C2CC3CCCCC3C(N)[N-]2)[N-]1.CC1CCCC(C2CC3CCCCC3C(N)[N-]2)[N-]1.O=[N+]([O-])O.[Cu+2]` (centres undefined), the T/C (dose: 100.0 mg/kg/injection, schedule: Q04DX002 (ip), vehicle: suspension in saline) is 105 % of control and the T/C (dose: 200.0 mg/kg/injection, schedule: Q04DX002 (ip), vehicle: suspension in saline) is 112 % of control.
As for `CCOC(=O)C(SC(Cl)(S(=O)(=O)c1ccccc1)S(=O)(=O)c1ccccc1)C(=O)OCC`, the T/C (dose: 25.0 mg/kg/injection, schedule: Q01DX009 (ip), vehicle: Klucel (hydroxypropylcellulose) (HPC)) was 105 % of control and 109 % of control; the T/C (dose: 50.0 mg/kg/injection, schedule: Q01DX009 (ip), vehicle: Klucel (hydroxypropylcellulose) (HPC)) is 116 % of control and 120 % of control and 121 % of control; the T/C (dose: 100.0 mg/kg/injection, schedule: Q01DX009 (ip), vehicle: Klucel (hydroxypropylcellulose) (HPC)) was 115 % of control and 116 % of control and 124 % of control; the T/C (dose: 200.0 mg/kg/injection, schedule: Q01DX009 (ip), vehicle: Klucel (hydroxypropylcellulose) (HPC)) is 110 % of control and 120 % of control and 121 % of control; the T/C (dose: 400.0 mg/kg/injection, schedule: Q01DX009 (ip), vehicle: Klucel (hydroxypropylcellulose) (HPC)) was 109 % of control.
Regarding `Nc1cc(Cl)c(N(CCO)C2=NCCN2)c(Cl)c1`, the T/C runs as follows: (dose: 12.5 mg/kg/injection, schedule: Q01DX005 (ip), vehicle: Klucel (hydroxypropylcellulose) (HPC)) 92 % of control; (dose: 25.0 mg/kg/injection, schedule: Q01DX005 (ip), vehicle: Klucel (hydroxypropylcellulose) (HPC)) 88 % of control; under setting [2], 105 % of control and 89 % of control.
Turning to `CCSc1nc2c(N)nc(N)nc2[nH]c1=O`, the T/C runs as follows: under setting [4], 99 % of control; under setting [5], 86 % of control.
With `O=S(=O)(/C=C/c1ccccc1)OCCCl`, the T/C runs as follows: (dose: 50.0 mg/kg/injection, schedule: Q01DX009 (ip), vehicle: saline with Tween-80) 103 % of control; (dose: 100.0 mg/kg/injection, schedule: Q01DX009 (ip), vehicle: saline with Tween-80) 107 % of control; (dose: 200.0 mg/kg/injection, schedule: Q01DX009 (ip), vehicle: saline with Tween-80) 107 % of control.

(Values after PubChem BioAssay AID330 (DTP/NCI, 2004).)
